Experimental data published in ChEMBL document CHEMBL3763028, “Anionic fluoroquinolones as antibacterials against biofilm-producing Pseudomonas aeruginosa” (2016).
Values after ≈ are worked out from the molar mass of the structure shown.

These compounds were tested on Pseudomonas aeruginosa (assay: Bactericidal activity against Pseudomonas aeruginosa PAO1 in Luria-Bertani broth by microdilution method). Conditions: not given.
Format: functional
In the case of O=CN1CCN(c2cc3c(cc2F)c(=O)c(C(=O)O)cn3C2CC2)CC1, the MBC is reported as 6.25 µM (≈ 2.25 µg/mL). Work on O=C([O-])c1ccccc1C(=O)N1CCN(c2cc3c(cc2F)c(=O)c(C(=O)[O-])cn3C2CC2)CC1.[K+].[K+] yielded an MBC of 6.25 µM. In the case of NC[C@H]1O[C@H](O[C@H]2[C@H](O)[C@@H](O[C@H]3O[C@H](CO)[C@@H](O)[C@H](N)[C@H]3O)[C@H](N)C[C@@H]2N)[C@H](N)C[C@@H]1O, the MBC is reported as 1.56 µM (≈ 0.729 µg/mL). In the case of O=C([O-])c1cn(C2CC2)c2cc(N3CCNCC3)c(F)cc2c1=O.[K+], the MBC is reported as 6.25 µM.

These compounds were tested on Pseudomonas aeruginosa (assay: Antipseudomonal activity against Pseudomonas aeruginosa PAO1 in Pseudomonas isolation agar assessed as bacterial growth inhibition at 10 uM by disk diffusion assay). Conditions: read-out: DIZ.
Format: functional
Work on O=CN1CCN(c2cc3c(cc2F)c(=O)c(C(=O)O)cn3C2CC2)CC1 yielded a zone of inhibition at 10 µM of 20 mm. Work on O=C(O)CCC(=O)N1CCN(c2cc3c(cc2F)c(=O)c(C(=O)O)cn3C2CC2)CC1 yielded a zone of inhibition at 10 µM of 0 mm. In the case of CCn1cc(C(=O)O)c(=O)c2cc(F)c(N3CCN(C(C)=O)C(C)C3)c(F)c21 (stereo not drawn), the zone of inhibition at 10 µM is reported as 0 mm. For O=C([O-])c1ccccc1C(=O)N1CCN(c2cc3c(cc2F)c(=O)c(C(=O)[O-])cn3C2CC2)CC1.[K+].[K+], the zone of inhibition at 10 µM was 11 mm. Compound CCn1cc(C(=O)O)c(=O)c2cc(F)c(N3CCN(C)CC3)cc21 has a zone of inhibition at 10 µM of 12 mm. CC(=O)N1CCN(c2cc3c(cc2F)c(=O)c(C(=O)O)cn3C2CC2)CC1 gave a zone of inhibition at 10 µM of 0 mm. COC(=O)CN1CCN(c2cc3c(cc2F)c(=O)c(C(=O)O)cn3C2CC2)CC1 showed a zone of inhibition at 10 µM of 0 mm. With O=C(O)c1cn(C2CC2)c2cc(N3CCN(Cc4ccccc4)CC3)c(F)cc2c1=O the zone of inhibition at 10 µM was 0 mm. CCCCCCN1CCN(c2cc3c(cc2F)c(=O)c(C(=O)O)cn3C2CC2)CC1 gave a zone of inhibition at 10 µM of 0 mm. In the case of O=C(O)CN1CCN(c2cc3c(cc2F)c(=O)c(C(=O)O)cn3C2CC2)CC1, the zone of inhibition at 10 µM is reported as 0 mm. NC[C@H]1O[C@H](O[C@H]2[C@H](O)[C@@H](O[C@H]3O[C@H](CO)[C@@H](O)[C@H](N)[C@H]3O)[C@H](N)C[C@@H]2N)[C@H](N)C[C@@H]1O showed a zone of inhibition at 10 µM of 13 mm. O=C([O-])c1cn(C2CC2)c2cc(N3CCNCC3)c(F)cc2c1=O.[K+] was tested, and the zone of inhibition at 10 µM was 24 mm.

Each compound was assayed on Pseudomonas aeruginosa (assay: Antipseudomonal activity against Pseudomonas aeruginosa PAO1 in Luria-Bertani agar assessed as bacterial growth inhibition at 10 uM by disk diffusion assay). Conditions: read-out: DIZ.
Format: functional
O=CN1CCN(c2cc3c(cc2F)c(=O)c(C(=O)O)cn3C2CC2)CC1 showed a zone of inhibition at 10 µM of 18 mm. O=C(O)CCC(=O)N1CCN(c2cc3c(cc2F)c(=O)c(C(=O)O)cn3C2CC2)CC1 gave a zone of inhibition at 10 µM of 0 mm. CCn1cc(C(=O)O)c(=O)c2cc(F)c(N3CCN(C(C)=O)C(C)C3)c(F)c21 (stereo not drawn) was tested, and the zone of inhibition at 10 µM was 0 mm. Work on O=C([O-])c1ccccc1C(=O)N1CCN(c2cc3c(cc2F)c(=O)c(C(=O)[O-])cn3C2CC2)CC1.[K+].[K+] yielded a zone of inhibition at 10 µM of 23 mm. Compound CCn1cc(C(=O)O)c(=O)c2cc(F)c(N3CCN(C)CC3)cc21 has a zone of inhibition at 10 µM of 18 mm. In the case of CC(=O)N1CCN(c2cc3c(cc2F)c(=O)c(C(=O)O)cn3C2CC2)CC1, the zone of inhibition at 10 µM is reported as 10 mm. COC(=O)CN1CCN(c2cc3c(cc2F)c(=O)c(C(=O)O)cn3C2CC2)CC1 showed a zone of inhibition at 10 µM of 0 mm. In the case of O=C(O)c1cn(C2CC2)c2cc(N3CCN(Cc4ccccc4)CC3)c(F)cc2c1=O, the zone of inhibition at 10 µM is reported as 0 mm. With CCCCCCN1CCN(c2cc3c(cc2F)c(=O)c(C(=O)O)cn3C2CC2)CC1 the zone of inhibition at 10 µM was 0 mm. Work on O=C(O)CN1CCN(c2cc3c(cc2F)c(=O)c(C(=O)O)cn3C2CC2)CC1 yielded a zone of inhibition at 10 µM of 0 mm. NC[C@H]1O[C@H](O[C@H]2[C@H](O)[C@@H](O[C@H]3O[C@H](CO)[C@@H](O)[C@H](N)[C@H]3O)[C@H](N)C[C@@H]2N)[C@H](N)C[C@@H]1O showed a zone of inhibition at 10 µM of 18 mm. In the case of O=C([O-])c1cn(C2CC2)c2cc(N3CCNCC3)c(F)cc2c1=O.[K+], the zone of inhibition at 10 µM is reported as 30 mm.

The compounds below were run on Pseudomonas aeruginosa (assay: Antipseudomonal activity against Pseudomonas aeruginosa PAO581 in Luria-Bertani agar assessed as bacterial growth inhibition at 10 uM by disk diffusion assay). Conditions: read-out: DIZ.
Format: functional
In the case of O=CN1CCN(c2cc3c(cc2F)c(=O)c(C(=O)O)cn3C2CC2)CC1, the zone of inhibition at 10 µM is reported as 21 mm. O=C(O)CCC(=O)N1CCN(c2cc3c(cc2F)c(=O)c(C(=O)O)cn3C2CC2)CC1 was tested, and the zone of inhibition at 10 µM was 0 mm. Work on CCn1cc(C(=O)O)c(=O)c2cc(F)c(N3CCN(C(C)=O)C(C)C3)c(F)c21 (stereo not drawn) yielded a zone of inhibition at 10 µM of 0 mm. Compound O=C([O-])c1ccccc1C(=O)N1CCN(c2cc3c(cc2F)c(=O)c(C(=O)[O-])cn3C2CC2)CC1.[K+].[K+] has a zone of inhibition at 10 µM of 31 mm. Compound CCn1cc(C(=O)O)c(=O)c2cc(F)c(N3CCN(C)CC3)cc21 has a zone of inhibition at 10 µM of 19 mm. Work on CC(=O)N1CCN(c2cc3c(cc2F)c(=O)c(C(=O)O)cn3C2CC2)CC1 yielded a zone of inhibition at 10 µM of 0 mm. Work on COC(=O)CN1CCN(c2cc3c(cc2F)c(=O)c(C(=O)O)cn3C2CC2)CC1 yielded a zone of inhibition at 10 µM of 0 mm. For O=C(O)c1cn(C2CC2)c2cc(N3CCN(Cc4ccccc4)CC3)c(F)cc2c1=O, the zone of inhibition at 10 µM was 13 mm. Compound CCCCCCN1CCN(c2cc3c(cc2F)c(=O)c(C(=O)O)cn3C2CC2)CC1 has a zone of inhibition at 10 µM of 0 mm. Compound O=C(O)CN1CCN(c2cc3c(cc2F)c(=O)c(C(=O)O)cn3C2CC2)CC1 has a zone of inhibition at 10 µM of 0 mm. With NC[C@H]1O[C@H](O[C@H]2[C@H](O)[C@@H](O[C@H]3O[C@H](CO)[C@@H](O)[C@H](N)[C@H]3O)[C@H](N)C[C@@H]2N)[C@H](N)C[C@@H]1O the zone of inhibition at 10 µM was 20 mm. In the case of O=C([O-])c1cn(C2CC2)c2cc(N3CCNCC3)c(F)cc2c1=O.[K+], the zone of inhibition at 10 µM is reported as 38 mm.

The compounds below were run on Pseudomonas aeruginosa (assay: Antipseudomonal activity against Pseudomonas aeruginosa PAO581 in Pseudomonas isolation agar assessed as bacterial growth inhibition at 10 uM by disk diffusion assay). Conditions: read-out: DIZ.
Format: functional
O=CN1CCN(c2cc3c(cc2F)c(=O)c(C(=O)O)cn3C2CC2)CC1 showed a zone of inhibition at 10 µM of 9 mm. For O=C(O)CCC(=O)N1CCN(c2cc3c(cc2F)c(=O)c(C(=O)O)cn3C2CC2)CC1, the zone of inhibition at 10 µM was 0 mm. In the case of CCn1cc(C(=O)O)c(=O)c2cc(F)c(N3CCN(C(C)=O)C(C)C3)c(F)c21 (stereo not drawn), the zone of inhibition at 10 µM is reported as 0 mm. With O=C([O-])c1ccccc1C(=O)N1CCN(c2cc3c(cc2F)c(=O)c(C(=O)[O-])cn3C2CC2)CC1.[K+].[K+] the zone of inhibition at 10 µM was 13 mm. For CCn1cc(C(=O)O)c(=O)c2cc(F)c(N3CCN(C)CC3)cc21, the zone of inhibition at 10 µM was 14 mm. With CC(=O)N1CCN(c2cc3c(cc2F)c(=O)c(C(=O)O)cn3C2CC2)CC1 the zone of inhibition at 10 µM was 13 mm. In the case of COC(=O)CN1CCN(c2cc3c(cc2F)c(=O)c(C(=O)O)cn3C2CC2)CC1, the zone of inhibition at 10 µM is reported as 0 mm. For O=C(O)c1cn(C2CC2)c2cc(N3CCN(Cc4ccccc4)CC3)c(F)cc2c1=O, the zone of inhibition at 10 µM was 0 mm. For CCCCCCN1CCN(c2cc3c(cc2F)c(=O)c(C(=O)O)cn3C2CC2)CC1, the zone of inhibition at 10 µM was 0 mm. In the case of O=C(O)CN1CCN(c2cc3c(cc2F)c(=O)c(C(=O)O)cn3C2CC2)CC1, the zone of inhibition at 10 µM is reported as 0 mm. NC[C@H]1O[C@H](O[C@H]2[C@H](O)[C@@H](O[C@H]3O[C@H](CO)[C@@H](O)[C@H](N)[C@H]3O)[C@H](N)C[C@@H]2N)[C@H](N)C[C@@H]1O showed a zone of inhibition at 10 µM of 17 mm. O=C([O-])c1cn(C2CC2)c2cc(N3CCNCC3)c(F)cc2c1=O.[K+] was tested, and the zone of inhibition at 10 µM was 26 mm.

Each compound was assayed on Pseudomonas aeruginosa (assay: Antipseudomonal activity against Pseudomonas aeruginosa PAO1 in Pseudomonas isolation agar assessed as reduction in inhibitory zone size at 10 uM by disk diffusion assay relative to Luria-Bertani agar). Conditions: not given.
Format: functional
Parameters: scale not given: the % may be the effect or the level left
O=C([O-])c1ccccc1C(=O)N1CCN(c2cc3c(cc2F)c(=O)c(C(=O)[O-])cn3C2CC2)CC1.[K+].[K+] gave an Activity of 53%. Work on O=C([O-])c1cn(C2CC2)c2cc(N3CCNCC3)c(F)cc2c1=O.[K+] yielded an Activity of 20%.

Each compound was assayed on Pseudomonas aeruginosa (assay: Antipseudomonal activity against Pseudomonas aeruginosa PAO581 in Pseudomonas isolation agar assessed as reduction in inhibitory zone size at 10 uM by disk diffusion assay relative to Luria-Bertani agar). Conditions: not given.
Format: functional
Parameters: scale not given: the % may be the effect or the level left
With O=C([O-])c1ccccc1C(=O)N1CCN(c2cc3c(cc2F)c(=O)c(C(=O)[O-])cn3C2CC2)CC1.[K+].[K+] the Activity was 58%. O=C([O-])c1cn(C2CC2)c2cc(N3CCNCC3)c(F)cc2c1=O.[K+] was tested, and the Activity was 32%.

What follows are compounds tested on Pseudomonas aeruginosa (assay: Antipseudomonal activity against Pseudomonas aeruginosa PAO581 in Luria-Bertani broth by microdilution method). Conditions: not given.
Format: functional
O=CN1CCN(c2cc3c(cc2F)c(=O)c(C(=O)O)cn3C2CC2)CC1 gave an MIC of 3.12 µM (≈ 1.12 µg/mL). O=C([O-])c1ccccc1C(=O)N1CCN(c2cc3c(cc2F)c(=O)c(C(=O)[O-])cn3C2CC2)CC1.[K+].[K+] gave an MIC of 3.12 µM. Work on NC[C@H]1O[C@H](O[C@H]2[C@H](O)[C@@H](O[C@H]3O[C@H](CO)[C@@H](O)[C@H](N)[C@H]3O)[C@H](N)C[C@@H]2N)[C@H](N)C[C@@H]1O yielded an MIC of 0.78 µM (≈ 0.365 µg/mL). Compound O=C([O-])c1cn(C2CC2)c2cc(N3CCNCC3)c(F)cc2c1=O.[K+] has an MIC of 1.56 µM.

Each compound was assayed on Pseudomonas aeruginosa (assay: Antipseudomonal activity against Pseudomonas aeruginosa PAO1 in Luria-Bertani broth by microdilution method). Conditions: not given.
Format: functional
For O=CN1CCN(c2cc3c(cc2F)c(=O)c(C(=O)O)cn3C2CC2)CC1, the MIC was 3.12 µM (≈ 1.12 µg/mL). O=C([O-])c1ccccc1C(=O)N1CCN(c2cc3c(cc2F)c(=O)c(C(=O)[O-])cn3C2CC2)CC1.[K+].[K+] gave an MIC of 3.12 µM. NC[C@H]1O[C@H](O[C@H]2[C@H](O)[C@@H](O[C@H]3O[C@H](CO)[C@@H](O)[C@H](N)[C@H]3O)[C@H](N)C[C@@H]2N)[C@H](N)C[C@@H]1O gave an MIC of 3.12 µM (≈ 1.46 µg/mL). With O=C([O-])c1cn(C2CC2)c2cc(N3CCNCC3)c(F)cc2c1=O.[K+] the MIC was 1.56 µM.

These compounds were tested on Pseudomonas aeruginosa (assay: Bactericidal activity against Pseudomonas aeruginosa PAO581 in Luria-Bertani broth by microdilution method). Conditions: not given.
Format: functional
Compound O=CN1CCN(c2cc3c(cc2F)c(=O)c(C(=O)O)cn3C2CC2)CC1 has an MBC of 6.25 µM (≈ 2.25 µg/mL). In the case of O=C([O-])c1ccccc1C(=O)N1CCN(c2cc3c(cc2F)c(=O)c(C(=O)[O-])cn3C2CC2)CC1.[K+].[K+], the MBC is reported as 12.5 µM. NC[C@H]1O[C@H](O[C@H]2[C@H](O)[C@@H](O[C@H]3O[C@H](CO)[C@@H](O)[C@H](N)[C@H]3O)[C@H](N)C[C@@H]2N)[C@H](N)C[C@@H]1O showed an MBC of 6.25 µM (≈ 2.92 µg/mL). O=C([O-])c1cn(C2CC2)c2cc(N3CCNCC3)c(F)cc2c1=O.[K+] showed an MBC of 6.25 µM.
